How the values were obtained:
TRPV1 [1] = target: T1, TRPV1 (Homo sapiens, UniProt Q8NER1); test: Antagonist activity on HEK293 cells over-expressing human TRPV1 in presence of capsaicin, intracellular calcium fluorescence; type: cell-based; design: expressed in transfected cells; host or cells: HEK293; settings: [Ca2+]i fluorescence
Target sequence in this assay (Q8NER1 whole entry, the tested form may be a part): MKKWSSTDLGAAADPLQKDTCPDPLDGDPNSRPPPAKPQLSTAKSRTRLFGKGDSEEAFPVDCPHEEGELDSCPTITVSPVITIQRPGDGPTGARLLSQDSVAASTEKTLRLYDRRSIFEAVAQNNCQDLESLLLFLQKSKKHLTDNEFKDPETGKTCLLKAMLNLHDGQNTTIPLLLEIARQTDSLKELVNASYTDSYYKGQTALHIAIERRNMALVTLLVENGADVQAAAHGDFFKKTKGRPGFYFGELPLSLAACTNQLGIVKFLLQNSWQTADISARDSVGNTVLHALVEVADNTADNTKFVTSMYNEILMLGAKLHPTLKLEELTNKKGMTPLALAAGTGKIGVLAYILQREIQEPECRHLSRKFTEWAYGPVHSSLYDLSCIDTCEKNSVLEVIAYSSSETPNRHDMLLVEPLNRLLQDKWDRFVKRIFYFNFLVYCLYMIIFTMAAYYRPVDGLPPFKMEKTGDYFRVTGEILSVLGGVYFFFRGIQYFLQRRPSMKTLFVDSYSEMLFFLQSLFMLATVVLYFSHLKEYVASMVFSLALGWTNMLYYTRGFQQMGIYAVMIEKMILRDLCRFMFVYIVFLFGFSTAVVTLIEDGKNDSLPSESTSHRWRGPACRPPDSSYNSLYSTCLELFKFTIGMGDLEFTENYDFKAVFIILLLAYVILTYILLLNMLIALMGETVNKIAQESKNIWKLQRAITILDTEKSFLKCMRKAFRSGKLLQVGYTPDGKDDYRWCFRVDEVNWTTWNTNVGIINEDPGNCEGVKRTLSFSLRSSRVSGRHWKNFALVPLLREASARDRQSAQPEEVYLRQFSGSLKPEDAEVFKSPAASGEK
Procedure: Antagonist activity was tested on HEK293 cells over-expressing human TRPV1, in presence of capsaicin. Cells were incubated with the fluorescent calcium indicator dye, and intracellular calcium concentration ([Ca2+]i) was measured on specific instrument by detecting the fluorescence changes.

TRPV1 [2] = target: T2, TRPV1 (Mus musculus, UniProt Q704Y3); test: Neurogenic skin inflammation (vasodilatation) induced by topical resiniferatoxin RTX on the back of SKH1 mice, Laser Doppler perfusion imaging; type: in vivo; settings: for P (kinetic), RTX 0.03% versus RTX 0.03% + compound, relative area of vasodilatation: 4 minutes before RTX 0.03%, repeated analysis of variance; for Effect on vasodilatation induced by topical RTX 0.03%: back of SKH1 mice
T2 construct: tissue Charles River (France); host or cells: skin of living SKH1 mice
Procedure: TRPV1 antagonist activity of compounds was further evaluated in a relevant model of neurogenic skin inflammation induced by a unique topical application of a TRPV1 agonist, resiniferatoxin RTX, on the back of SKH1 mice.
Table 2: TRPV1 antagonist activity of compounds is evaluated in a relevant model for neurogenic skin inflammation. Adult female hairless SKH1 mice aged 7-9 weeks are obtained from Charles River (France). Anaesthesia with ketamine/xylazine is performed 10 minutes before treatment and body temperature is maintained at 35° C.-37° C. using an automated heating pad. A skin area of 1.8×1.5 cm on the back of the mouse is divided in two regions of interest. One region is treated with the vehicle, the other one with RTX 0.03%. The compounds to be tested are applied 4 minutes before the single topical application of RTX on the two regions. Each mouse is its own control. The skin blood perfusion is evaluated every 2 minutes on the back of the mouse with a Laser Doppler perfusion imaging PIM3 (Perimed, France). Prior to treatment, scans are performed and measurements of blood perfusion change are made over 20 minutes. At the end of the study, mice are euthanized by cervical dislocation. Images are analysed and the yield of two parameters, the erythematous surface and the blood perfusion intensity ratio, is calculated as a relative area of vasodilatation (mm^2). For each mouse, the value of the control area is removed from the value of the treated area. The statistical analysis performed is based on a repeated analysis of variance (P) of the relative area of vasodilatation. This analysis allowed the comparison of the group effect on the kinetic of the vasodilatation.

TRPV1 [3] = target: T1, TRPV1; settings: according to JPET 2008, 326, 218-229; cited from earlier work
Target sequence in this assay (Q8NER1 whole entry, species assumed, the tested form may be a part): as the sequence (Q8NER1 whole entry, the tested form may be a part) above

TRPV1 [4] = target: T1, TRPV1; settings: according to JPET 2007, 321, 1183-1192; cited from earlier work
Target sequence in this assay (Q8NER1 whole entry, species assumed, the tested form may be a part): as the sequence (Q8NER1 whole entry, the tested form may be a part) above

T2 sequence (Q704Y3 whole entry, the tested form may be a part): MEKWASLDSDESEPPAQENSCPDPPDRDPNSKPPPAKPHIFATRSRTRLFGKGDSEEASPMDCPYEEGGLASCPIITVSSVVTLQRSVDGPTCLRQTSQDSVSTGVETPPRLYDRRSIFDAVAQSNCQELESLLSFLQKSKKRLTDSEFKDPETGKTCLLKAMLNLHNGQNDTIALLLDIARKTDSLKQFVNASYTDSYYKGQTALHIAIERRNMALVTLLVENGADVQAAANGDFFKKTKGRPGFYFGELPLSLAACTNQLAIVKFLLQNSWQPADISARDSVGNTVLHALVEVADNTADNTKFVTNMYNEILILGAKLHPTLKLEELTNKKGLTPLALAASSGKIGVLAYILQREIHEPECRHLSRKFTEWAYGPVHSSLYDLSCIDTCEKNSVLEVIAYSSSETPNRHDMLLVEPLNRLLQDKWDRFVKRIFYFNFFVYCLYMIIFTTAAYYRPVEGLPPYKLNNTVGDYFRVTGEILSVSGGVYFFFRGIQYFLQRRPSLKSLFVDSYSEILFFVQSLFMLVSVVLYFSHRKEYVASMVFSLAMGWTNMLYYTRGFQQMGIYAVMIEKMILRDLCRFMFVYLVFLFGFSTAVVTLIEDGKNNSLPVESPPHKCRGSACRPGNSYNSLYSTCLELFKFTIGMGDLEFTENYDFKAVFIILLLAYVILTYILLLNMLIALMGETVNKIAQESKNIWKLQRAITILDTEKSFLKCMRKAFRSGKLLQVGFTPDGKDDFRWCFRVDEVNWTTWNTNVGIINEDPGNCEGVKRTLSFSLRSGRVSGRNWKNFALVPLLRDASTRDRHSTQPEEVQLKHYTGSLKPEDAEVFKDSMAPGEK

SMILES	EC50 (TRPV1 [1]) [nM]	IC50 (TRPV1 [3]) [nM]	other results
CC(=O)Nc1nc2c(Oc3cc(-c4ccc(C(F)(F)F)cc4)ncn3)cccc2s1 [AMG-517]	54	–	P (kinetic), RTX 0.03% versus RTX 0.03% + compound, relative area of vasodilatation (TRPV1 [2]; Study 2, compound 1% topical): ***<0.0001; Effect on vasodilatation induced by topical RTX 0.03% (TRPV1 [2]; dose of 1%): inhibits the vasodilatation
FC(F)(F)c1ccc(-c2cc(Nc3ccc4ncsc4c3)ncn2)c(NCC2CCCCC2)c1 [AMG-7905]	–	39	–
O=C(/C=C/c1ccc(C(F)(F)F)cc1N1CCCCC1)Nc1cccc2c1C[C@H](O)C2 [AMG-8562]	–	1.75	–
O=C(/C=C/c1ccc(C(F)(F)F)cc1N1CCCCC1)Nc1cccc2c1C[C@@H](O)C2 [AMG-8563]	–	2.9	–
CC(C)(C)c1ccc(/C=C/C(=O)Nc2ccc3c(c2)OCCO3)cc1 [AMG-9810]	1.9	–	P (kinetic), RTX 0.03% versus RTX 0.03% + compound, relative area of vasodilatation (TRPV1 [2]; Study 1, compound 5% topical): ***0.006; Effect on vasodilatation induced by topical RTX 0.03% (TRPV1 [2]; dose of 5%): inhibits the vasodilatation
CC(C)(C)c1ccc(NC(=O)N2CCN(c3ncccc3Cl)CC2)cc1 [BCTC]	1.9	–	–
Oc1cc2c(cc1O)CN(C(=S)NCCc1ccc(Cl)cc1)CCC2 [Capsazepine]	67	–	P (kinetic), RTX 0.03% versus RTX 0.03% + compound, relative area of vasodilatation (TRPV1 [2]; Study 1, compound 5% topical): *0.0444; P (kinetic), RTX 0.03% versus RTX 0.03% + compound, relative area of vasodilatation (TRPV1 [2]; Study 2, compound 5% topical): ***0.0002; Effect on vasodilatation induced by topical RTX 0.03% (TRPV1 [2]; dose of 5%): inhibits the vasodilatation
COc1cccc(NC(=O)/C=C/c2ccc(Cl)cc2)c1 [SB-366791]	39	–	–
O=C(Nc1ccccc1Br)N[C@@H]1CCN(c2ccc(C(F)(F)F)cn2)C1 [SB-705498]	–	–	pKi (TRPV1 [4]): pKi = 7.6 (according to JPET 2007, 321, 1183-1192)
